This is an account of results in patent US6962920B2, “Pyrimidine derivatives and methods of making and using these derivatives” (Duquesne University of the Holy Ghost, priority 1992, dated 2005).

The test system of one assay is R2 cells. Nature of the assay: Growth inhibition of R2 subline (MTX-transport deficient). Particulars: Homo sapiens; Table 8; continuous (0-120 hours) exposure; read-out: Growth inhibition EC50, R2. Type of assay: cell-based.
The target of assay [1] is T1, CCRF-CEM human leukemia cell folylpolyglutamate synthetase (Homo sapiens, UniProt Q05932).
T1 construct: substrates for human leukemia cell CCRF-CEM folylpolyglutamate synthetase; endogenous in cells; host or cells: CCRF-CEM human leukemia cells
T1 sequence (Q05932 43-587): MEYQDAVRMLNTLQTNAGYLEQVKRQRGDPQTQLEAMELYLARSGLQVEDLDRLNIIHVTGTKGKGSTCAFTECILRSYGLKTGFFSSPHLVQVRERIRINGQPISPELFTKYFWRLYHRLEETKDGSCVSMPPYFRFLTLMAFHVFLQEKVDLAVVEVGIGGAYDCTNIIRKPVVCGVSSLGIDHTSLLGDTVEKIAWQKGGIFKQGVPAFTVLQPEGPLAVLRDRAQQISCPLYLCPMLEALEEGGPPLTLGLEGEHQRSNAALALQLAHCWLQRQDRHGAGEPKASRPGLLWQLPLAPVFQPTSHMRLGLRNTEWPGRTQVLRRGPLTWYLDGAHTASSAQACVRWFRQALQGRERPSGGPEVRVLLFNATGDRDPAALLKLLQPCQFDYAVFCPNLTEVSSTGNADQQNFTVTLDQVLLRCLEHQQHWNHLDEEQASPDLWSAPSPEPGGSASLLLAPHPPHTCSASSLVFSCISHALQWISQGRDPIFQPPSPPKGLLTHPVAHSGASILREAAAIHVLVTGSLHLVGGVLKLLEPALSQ
Nature of the assay: Substrate activity for CCRF-CEM folylpolyglutamate synthetase. It is filed as biochemical. Particulars: Table 10. Here is the method: Aminopterin is a classical 2,4-diamino antifolate substrate.
Compounds 33 and 34 were also evaluated for their substrate activity in CCRF-CEM human leukemia folylpolyglutamate synthetase; the compounds were compared against aminopterin.

On to `Nc1nc(N)c2c(CNc3ccc(C(=O)N[C@@H](CCC(=O)O)C(=O)O)cc3)c[nH]c2n1` [Compound 9], for which the concentration giving a half-maximal response (EC50) (as a rule, the concentration needed to bring the measured effect to its halfway point) in the assay with R2 cells amounted to 1650 ± 200 nM. In addition, the “Vmax(rel)” value in assay [1] (relative to aminopterin) was 0.72 ± 0.07. Moreover, the Michaelis-Menten constant (Km) (in general, the concentration of substrate that gives half-maximal velocity) in assay [1] (substrate for FPGS) is less than 1 µM.
